In data set [1] the test system is IL-2 and TNF-α. The data set is described as follows: ELISA of IL-2 and TNF-α, blood cells of VPA treated patient stimulated with CD3/CD28. To be noted: CD3/CD28 stimulated 24 hours. The format is in vivo, human. Here is the method: The cells were either left unstimulated or stimulated with CD3 and CD28 antibodies. After 24 hours at 37° C. the supernatant was collected and the secretion of IL-2 and TNF-α was quantified by ELISA (R&D Systems) (FIGS. 19A and B).
A general note: An ELISA detects its analyte on a solid surface through an enzyme-linked reagent.

The subject of data set [2] is inflammatory cytokines. Put plainly: RT-PCR of cytokine mRNA, blood cells of VPA treated patient stimulated with CD3/CD28. The format is in vivo, human. As to the method:
Total RNA from unstimulated and CD3/CD28 stimulated cells was isolated using the RNeasy mini kit (Qiagen). One microgram of total RNA was converted to cDNA by standard methods using reverse transcriptase and an oligo-dT primer (Invitrogen). For semiquantitative PCR, 2 μl of cDNA were amplified by PCR using the specific primers as described above (FIG. 19C).

Data set [3] deals with histone H4 acetylation. The data set is described as follows: Immunohistochemistry of acetylated H4 after topical application to BCC lesions of patients. The format is in vivo, human. To be noted: VPA 3% (w/w) topically 16-20 hours before surgical excision vs placebo; FIG. 10. Here is the method: (§1) Cryostat skin sections of 3 μm thickness were fixed in acetone at room temperature for 10 min. Before staining with anti-acetylated H4 antibody (clone T25, see above) the tissue was blocked by preincubation with F(ab′)2 fragments derived from goat anti-mouse immunoglobulin (Cappel) ( 1/10000 dilution in 50 mM Tris buffered saline, TBS) for 30 min. After rinsing with TBS for 10 min, the sections were incubated with anti-acetylated H4 antibody (clone T25) ( 1/4000 dilution in TBS) at room temperature for 1 hour. Then, the specimens were incubated with the rabbit anti-mouse serum and treated with APAAP (alkaline phosphatase anti-alkaline phosphatase) immunocomplex as described above. The positive staining was developed in red color with naphthol-AS-BI phosphate as a substrate, and New Fuchsin (Dako) as a chromogen. Pictures were taken with a digital camera connected to a light microscopy apparatus.
(§2) Skin biopsies were frozen in liquid nitrogen immediately after excision. Immunohistochemistry was then performed on 3 μm sections as described in methods. Biopsies of skin topically treated with Placebo or VPA were processed in parallel, pictures were taken with a light microscopy apparatus connected to a digital camera under the same light intensity.

The test system of another data set is mouse embryos. The conditions noted are these: mice, when properly dosed; cited from earlier work.
The test system of data set [4] is histone H4 acetylation. The data set is described as follows: Western blot of acetylated histone H4 in keratinocytes. The format is cell-based, human. To be noted: HaCaT, 24 hours treatment; FIG. 7. Here is the method:
Western blot: HaCaT cells were seeded into 6-well culture dishes 24 hrs before treatment. […] Whole cell extracts were prepared by lysis of cells in RIPA buffer plus protease inhibitors for denaturing SDS gel electrophoresis on a 12% denaturing polyacrylamid gel. Acetylated histone H4 was detected by Western blot analysis using an anti-acetylated H4 antibody (clone T25; see patent application EP 02.021984.6) and as an equal loading control expression of β-actin was confirmed using an anti-actin antibody (Sigma, Cat. No. A5441).
Cells were plated in 6 well plates at day 0. Drugs were added on day 1, cells were lysed on day 2 with RIPA buffer plus protease inhibitors. 40 μg of total cell lysate were separated by 12.5% SDS PAGE and subjected to immunoblotting with the indicated antibodies.

In data set [5] the test system is histone H4 acetylation. Put plainly: Immunohistochemistry of acetylated H4 after topical application to mouse skin. The conditions noted are these: athymic nude mice, VPA topically applied at 3% (w/w) vs placebo; FIGS. 8 and 9. The format is in vivo. As to the method: as §1, §2
Data set [6] deals with inflammatory cytokines. Put plainly: Semiquantitative RT-PCR of cytokine mRNA, LPS stimulated keratinocytes. The conditions noted are these: HaCaT, 200 nM TSA or 5 mM VPA 4 hours, then LPS 100 ng/ml 24 hours, FIG. 12A. The format is cell-based, human. Here is the method: Human immortalized keratinocytes (HaCaT cells) were seeded at a density of 2.5 million cells per ml into 75 cm^2 flasks. […] After 24 hours at 37° C. cells were lysed and total RNA was isolated using the RNeasy mini kit from Qiagen.
(§3) One microgram of total RNA was transcribed to cDNA by standard methods using reverse transcriptase and an oligo-dT primer (Invitrogen). For semiquantitative PCR, 2 μl of cDNA was amplified by PCR using specific primers. Primers for PCR were synthesized by MWG and are as follows: […]

In data set [7] the test system is IL-2 and TNF-α. The data set is described as follows: IL-2 and TNF-α ELISA, supernatants of stimulated peripheral blood lymphocytes. The format is cell-based, human. Here is the method: (§4) Monocyte and macrophage depleted peripheral blood mononuclear cells were obtained from consenting adults via separation using Ficoll-Hypaque. The peripheral blood mononuclear cells (PBMC) fraction was washed and seeded in 9 cm petri dishes. After an incubation of 2 hours at 37° C. to remove most of the monocytes, macrophages, and B-cells, the non-adherent cells were collected and cultured in 175 cm^2 flasks for 2 days. Cells were harvested and adjusted to 3 million cells per ml. Aliquots of 500 μl were transferred to each well of 24-well flat bottom plates. Peripheral blood lymphocytes (PBL's) were treated with various concentrations of HDAC inhibitors as indicated. After a 2 hours incubation time at 37° C. cells were stimulated with phorbol 12-myristate 13-acetate (PMA)/ionomycin (Ion) or activated via T cell receptor (TCR/CD3) complex with 10 μg/ml anti-CD3 mAb (OKT3) and 2.5 μg/ml anti-CD28 mAb. After 24 hours at 37° C. the supernatant was removed and frozen for cytokine assays. Cell pellets were lysed and total RNA was isolated using the RNeasy mini kit from Qiagen.
To perform ELISAs, supernatants of treated and untreated PBL's were collected and IL-2 as well as TNF-α were measured using the Duo Set ELISA Development System (R&D Systems) as described by the manufacturer.

Data set [8] has as its system acetylated histones H3 and H4 and HDAC-2. Put plainly: Western blot of peripheral blood cells from patients treated with VPA intravenously (Phase I/II study). The conditions noted are these: before, 6 h, 24 h, 48 h after start, FIG. 18. The format is in vivo, human. As to the method: Whole cell extracts were prepared by lysis of cells in RIPA buffer including protease inhibitors. Lysates were separated by SDS gel electrophoresis and transferred onto PVDF membranes. Acetylated histones H3 and H4 and the marker gene HDAC-2 were detected by western blot analysis using an anti-acetylated H3 antibody (Upstate, #06-942), an anti-acetylated H4 antibody (clon T25; patent application EP 02.021984.6), and an anti-HDAC-2 antibody (SCBT, SC-7899). As an equal loading control PVDF membranes were stained with Coomassie (FIG. 18).
(In general: In western blotting, separated proteins are transferred to a membrane and probed.)

Data set [9] relates to inflammatory cytokines. Put plainly: Semiquantitative RT-PCR of cytokine mRNA, PMA/Ion stimulated peripheral blood lymphocytes. The format is cell-based, human. The conditions noted are these: PBLs preincubated 2 hours, PMA/Ion 24 hours; FIGS. 12B, 13. As to the method: as §4, §3
Setting [10] is: starting at 24 hours of VPA treatment.
Setting [11] is: vs untreated stimulated control.
Setting [12] is: 1 mM, other experiments, PBLs stimulated with PMA/ION and CD3/CD28 mAbs, FIG. 16.
The mark [13] stands for this setting: PBLs, increasing concentrations two hours, CD3 and CD28 mAbs 24 hours, FIG. 15.

Molecules are shown by their SMILES.

In the case of `CCCC(CCC)C(=O)O` [VPA, 2-propyl-pentanoic acid], in the data set on IL-2 and TNF-α [1], the “IL-2 in culture supernatant (ELISA)” value is listed as “modulates the expression” and the “TNF-α in culture supernatant (ELISA)” value is on record as “modulates the expression”. In addition, in the data set with inflammatory cytokines [2] (CD3/CD28 stimulated), the “IL-2 mRNA transcripts” value is given as “decrease” and the “TNF-α mRNA transcripts” value is reported as “decrease”. In addition, in the data set with inflammatory cytokines [2] (setting [10]), the “IFN-γ mRNA expression” value is reported as “significantly reduced” and the “IL-4 mRNA expression” value is “significantly reduced”. The “histone H4 acetylation in BCC cells and normal skin cells of patients” value with histone H4 acetylation [3] is on record as “clear increase of histone H4 acetylation”. For the same molecule, in the data set with mouse embryos, the teratogenicity entry is “teratogenic in the majority of mouse embryos”. The “histone H4 acetylation (Western blot)” value in the data set with histone H4 acetylation [4] is given as “induces histone H4 hyperacetylation in a dose dependent manner”. The “histone H4 acetylation in skin cells” value in the data set with histone H4 acetylation [5] is “clear increase of histone H4 acetylation”. In the data set with inflammatory cytokines [6], the “IFN-γ mRNA transcript” value is given as “significantly reduced”. In the data set with inflammatory cytokines [6] (setting [11]), the “IL-6 mRNA level” value was “significant decrease” and the “TNF-α mRNA level” value was “significant decrease”. Also, the IL-2 secretion entry in the data set with IL-2 and TNF-α [7] (0.5 mM, PBLs, CD3/CD28, FIG. 15) is listed as “only moderate effect”. In the data set with IL-2 and TNF-α [7] (1 mM, PBLs, CD3/CD28, FIG. 15), the IL-2 secretion entry was “only moderate effect”. Besides, in the data set on IL-2 and TNF-α [7] (setting [12]), the IL-2 secretion result is given as “significant decrease” and the TNF-α secretion entry was “significant decrease”. In the data set with IL-2 and TNF-α [7] (5 mM, PBLs, CD3/CD28, FIG. 15), the IL-2 secretion entry is “significantly reduced”. Also, in the data set on IL-2 and TNF-α [7] (setting [13]), the “IL-2 secretion, dose-response” value was “dose-dependent inhibition” and the “TNF-α secretion, dose-response” value is “dose-dependent inhibition”. In addition, in data set [8], the “HDAC-2 protein in peripheral blood cells” value is given as “down-regulation of the marker protein HDAC-2”; the “histone H3 and H4 acetylation in peripheral blood cells” value is “Histone H3 and H4 hyperacetylation”. In addition, in the data set with inflammatory cytokines [9], the “IL-4 mRNA transcripts” value is given as “significantly reduced” and the “IL-6 mRNA transcripts” value is “decreased IL-6 mRNA back to the level seen in the unstimulated sample”.
